Assay results from patent publication US6162463A (priority 1998, dated 2000).
Counter-ions that a name gives are not always drawn.

Assays:
angina pectoris = settings: cited from earlier work
[1] = cited from earlier work
clinical = settings: po, 120 mg
Experimental: (§1) An interval of approximately 5-7 days elapsed between the administration of each agent tested in this example.
(§2) (TM) containing EDTA (ethylenediamine tetraacetic acid) as an anticoagulant just before administration of the test agent; this sample represented the zero time sample. The blood sample was centrifuged for 15 minutes under conditions known to those skilled in the art. The plasma portion of each sample was harvested, frozen and stored at minus 70 degrees Celsius until analysis. At timed intervals after administration, additional blood samples were withdrawn and similarly treated.

[2] = oral, 120 mg diltiazem hydrochloride, after administration; FIG. 6
Experimental: as §1, §2

COc1ccc([C@@H]2Sc3ccccc3N(CCN(C)C)C(=O)[C@@H]2OC(C)=O)cc1 [diltiazem]
incidence of side effects compared with other calcium channel blockers (angina pectoris; human, in vivo): lower incidence of side effects
safety and efficacy in stable and unstable angina pectoris (angina pectoris; reference 1): safe and effective treatment for both stable and unstable angina pectoris
decrease in bioavailability by first-pass metabolism (loss) ([1]; oral): ≤ 60%
plasma half-life ([1]; references 17, 19): 2 to 6 h

COc1ccc([C@@H]2Sc3ccccc3N(CCN(C)C)C(=O)[C@@H]2OC(C)=O)cc1 [diltiazem hydrochloride]
Tmax (clinical; human, plasma): 1 to 2 h
Tmax (clinical; in vivo): 1 to 2 h
time by which most of the quick release preparation is gone (plasma) [2]: 5 to 6 h
